≈ marks a conversion by molar mass, not a printed value. Where “and” joins values, the source holds several entries; their conditions need not be identical. Identical values can stand only once. Like-named read-outs stand apart in the source and are kept apart here.
Assays:
Feline herpes virus = experiment: Antiviral activity; format: cell-based; settings: for MIC50: read-out: MIC50 Feline herpes virus
Feline coronavirus = experiment: Antiviral activity; format: cell-based; settings: for MIC50 Feline coronavirus: CRFK cells; for MIC50: Alphacoronavirus 1, read-out: MIC50 Feline coronavirus
Simplex herpes 2 G virus = experiment: Antiviral activity; format: cell-based, Simplex herpes 2 virus; settings: read-out: MIC50 Simplex herpes 2 G virus
[1] = test system: Vesicular stomatitis virus; experiment: microbe, parasite or virus in culture; format: cell-based; settings: read-out: MIC50 Vesicular stomatitis virus
Reovirus 1 = experiment: Antiviral activity; format: cell-based; settings: Mammalian orthoreovirus 1, read-out: MIC50 Reovirus 1
Influenza A H3N2 virus [2] = experiment: Antiviral activity; format: cell-based; settings: for MIC50: Influenza A virus
[3] = test system: Cervical Cancer Cells (HeLa); experiment: Cytotoxicity in HeLa cells; format: cell-based
Influenza A H1N1 virus [4] = experiment: Antiviral activity; format: cell-based; settings: for MIC50: Influenza A virus
[5] = test system: Human Erythroleukemia Cells (HEL); experiment: Cytotoxicity; format: cell-based; settings: morphological changes detected microscopically
Sindbis virus = experiment: Antiviral activity; format: cell-based; settings: read-out: MIC50 Sindbis virus
[6] = test system: Respiratory syncytial virus; experiment: Antiviral activity; format: cell-based; settings: human respiratory syncytial virus, read-out: MIC50 Respiratory syncytial virus
Influenza B virus [7] = experiment: Antiviral activity; format: cell-based; settings: for MIC50: Influenza B virus
Parainfluenza 3 virus [8] = experiment: Antiviral activity; format: cell-based; settings: read-out: MIC50 Parainfluenza 3 virus
[9] = test system: Vesicular stomatitis virus; experiment: microbe, parasite or virus in culture; format: cell-based; settings: read-out: MIC50 Vesicular stomatitis virus; remark: listed apart in the source
[10] = test system: Simplex herpes 1 TK-KOS ACVr virus; experiment: Antiviral activity; format: cell-based, Simplex herpes 1 virus; settings: read-out: MIC50 Simplex herpes 1 TK-KOS ACVr virus
[11] = Cytotoxicity in MDCK cells; format: cell-based, Cocker Spaniel; settings: dog
[12] = test system: Simplex herpes 1 KOS virus; experiment: Antiviral activity; format: cell-based, Simplex herpes 1 virus; settings: read-out: MIC50 Simplex herpes 1 KOS virus
[13] = test system: Cocker Spaniel Hepatocytes (MDCK); experiment: Cytotoxicity in MDCK cells; format: cell-based
Influenza B virus [14] = settings: literature; cited from earlier work
[15] = test system: African Green Monkey Epithelial Kidney Cells (VERO); experiment: Cytotoxicity in VERO cells; format: cell-based
Influenza A H3N2 virus [16] = settings: literature; cited from earlier work
[17] = test system: Respiratory syncytial virus; settings: literature data; cited from earlier work
Influenza A H1N1 virus [18] = settings: previously reported; cited from earlier work
Parainfluenza 3 virus [19] = settings: literature data; cited from earlier work
[20] = test system: Feline Kidney Cells (CRFK); experiment: Cytotoxicity in CRFK cells; format: cell-based
[21] = H3N2, read-out: MIC50 Influenza A H3N2 virus CA
[22] = H3N2, read-out: MIC50 Influenza A H3N2 virus VA
[23] = H1N1, read-out: MIC50 Influenza A H1N1 virus CA
[24] = H1N1, read-out: MIC50 Influenza A H1N1 virus VA
[25] = read-out: MIC50 Influenza B virus CA
[26] = read-out: MIC50 Influenza B virus VA
[27] = MDCK cells, colorimetric assessment
[28] = MDCK cells, visual assessment (microscopy)

| Compound | MIC50 (Simplex herpes 2 G virus) | MIC50 [1] | MIC50 (Reovirus 1) | MIC50 (Influenza A H3N2 virus [2]; [21]) | MIC50 (Influenza A H3N2 virus [2]; [22]) | MCC [3] | MIC50 (Influenza A H1N1 virus [4]; [23]) | MIC50 (Influenza A H1N1 virus [4]; [24]) | MCC (minimum cytotoxic concentration) [5] | MIC50 (Sindbis virus) | MIC50 [6] | MIC50 (Influenza B virus [7]; [25]) | MIC50 (Influenza B virus [7]; [26]) | MIC50 (Parainfluenza 3 virus [8]) | MIC50 [9] | MIC50 [10] | CC50 [11] | MIC50 [12] | MCC [13] | other results |
| --- | --- | --- | --- | --- | --- | --- | --- | --- | --- | --- | --- | --- | --- | --- | --- | --- | --- | --- | --- | --- |
| 3'-(1-Carboxy-1-phosphonoxyethoxy)uridinediphosphate-N-acetylglucosamine [UDA] |  |  |  |  |  |  |  |  |  |  |  |  |  |  |  |  |  |  |  | MIC50 Feline herpes virus (Feline herpes virus; CRFK cells): 0.8 µM; MIC50 Feline coronavirus (Feline coronavirus): 1.1 µM |
| CCOC(=O)c1c([C@@H]2C[C@H]2c2ccccc2)n(C)c2ccc(O)cc12 (relative stereo) [Compound 3, ethyl 5-hydroxy-1-methyl-2-(trans-2-phenylcyclopropyl)-1H-indole-3-carboxylate] | > 300 µM and > 100 µg/mL | > 300 µM and > 100 µg/mL | > 300 µM and > 100 µg/mL | > 12 µM and > 4 µg/mL | > 12 µM and > 4 µg/mL | > 300 μM and > 100 μg/ml | > 12 µM and > 4 µg/mL | > 12 µM and > 4 µg/mL | > 300 μM and > 100 μg/ml | > 300 µM and > 100 µg/mL | > 300 µM and > 100 µg/mL | > 12 µM and > 4 µg/mL | > 12 µM and > 4 µg/mL | > 300 µM and > 100 µg/mL | > 300 µM and > 100 µg/mL | > 300 µM and > 100 µg/mL | 59.6 µM and 20 µg/mL | > 300 µM and > 100 µg/mL |  | MIC50 (Feline herpes virus): > 300 µM and > 100 µg/mL; MIC50 (Feline coronavirus): > 300 µM and > 100 µg/mL |
| N[C@H]1C(C(=O)O)=CC=C[C@@H]1O (relative stereo) [HHA, (2S,3S)-trans-3-Hydroxy-2,3-dihydroanthranilic acid] |  |  |  |  |  |  |  |  |  |  |  |  |  |  |  |  |  |  |  | MIC50 Feline coronavirus (Feline coronavirus): 13.0 µM (≈ 2.02 µg/mL) |
| Nc1ncnc2c1ncn2C[C@H](O)CO [(S)-DHPA, 9-((2S)-2,3-Dihydroxypropyl)adenine] |  |  | > 250 µM |  |  | >250 µM |  |  |  | > 250 µM | > 250 µM |  |  | > 250 µM | > 250 µM |  |  |  |  |  |
| Nc1nc2c(ncn2COCCO)c(=O)[nH]1 [Acyclovir] | 0.08 µM (≈ 0.018 µg/mL) | 250 µM (≈ 56.3 µg/mL) |  |  |  |  |  |  | >250 µM |  |  |  |  |  |  | 2 µM (≈ 0.45 µg/mL) |  | 0.2 µM (≈ 0.045 µg/mL) |  |  |
| NC12CC3CC(CC(C3)C1)C2 [Amantadine] |  |  |  | 1.6 µM (≈ 0.242 µg/mL) | 4 µM (≈ 0.605 µg/mL) |  | 83.9 µM (≈ 12.7 µg/mL) | 89 µM (≈ 13.5 µg/mL) |  |  |  | > 200 µM | > 200 µM |  |  |  | > 200 µM |  | >200 µM |  |
| O=c1[nH]c(=O)n([C@H]2C[C@H](O)[C@@H](CO)O2)cc1/C=C/Br [Brivudine] | 183 µM (≈ 61 µg/mL) | > 250 µM |  |  |  |  |  |  | >250 µM |  |  |  |  |  |  | 2 µM (≈ 0.666 µg/mL) |  | 0.04 µM (≈ 0.0133 µg/mL) |  |  |
| Nc1ccn(C[C@@H](CO)OCP(=O)(O)O)c(=O)n1 [Cidofovir] | 2 µM (≈ 0.558 µg/mL) | > 250 µM |  |  |  |  |  |  | >250 µM |  |  |  |  |  |  | 6 µM (≈ 1.68 µg/mL) |  | 6 µM (≈ 1.68 µg/mL) |  |  |
| Nc1nc(O)c2ncn(COC(CO)CO)c2n1 [Ganciclovir] | 0.03 µM (≈ 0.00766 µg/mL) | > 100 µM |  |  |  |  |  |  | >100 µM |  |  |  |  |  |  | 0.2 µM (≈ 0.051 µg/mL) |  | 0.08 µM (≈ 0.0204 µg/mL) |  | MIC50 (Feline coronavirus): > 100 µM |
| CC(N)C12CC3CC(CC(C3)C1)C2 (centres unmarked) [Remantadine] |  |  |  |  |  |  |  |  |  |  |  |  |  |  |  |  |  |  | >200 µM | MIC50 Influenza A H3N2 virus CA (Influenza A H3N2 virus [2]; [27]): 0.3 µM (≈ 0.0538 µg/mL); MIC50 Influenza A H3N2 virus VA (Influenza A H3N2 virus [2]; [28]): 0.3 µM (≈ 0.0538 µg/mL); MIC50 Influenza A H1N1 virus CA (Influenza A H1N1 virus [4]; [27]): 10.3 µM (≈ 1.85 µg/mL); MIC50 Influenza A H1N1 virus VA (Influenza A H1N1 virus [4]; [28]): 20 µM (≈ 3.59 µg/mL); MIC50 Influenza B virus CA (Influenza B virus [7]; [27]): >200 µM; MIC50 Influenza B virus VA (Influenza B virus [7]; [28]): >200 µM |
| NC(=O)c1ncn([C@@H]2O[C@H](CO)[C@@H](O)[C@H]2O)n1 [Ribavirin] |  |  | > 250 µM | 10.7 µM (≈ 2.61 µg/mL) | 9 µM (≈ 2.2 µg/mL) | >250 µM | 6.4 µM (≈ 1.56 µg/mL) | 9 µM (≈ 2.2 µg/mL) |  | > 250 µM | 10 µM (≈ 2.44 µg/mL) | 5.9 µM (≈ 1.44 µg/mL) | 20 µM (≈ 4.88 µg/mL) | 50 µM (≈ 12.2 µg/mL) | 10 µM (≈ 2.44 µg/mL) |  | > 100 µM |  | >100 µM |  |
| CCOC(=O)c1c(CSc2ccccc2)n(C)c2cc(Br)c(O)c(CN(C)C)c12.Cl.O [Umifenovir, Ethyl 6-bromo-4-(dimethylamino)methyl-5-hydroxy-1-methyl-2-(phenylsulfanyl)methyl-1 H -indole-3-carboxylate hydrochloride monohydrate] | > 37 µM and > 20 µg/mL | > 37 µM and > 20 µg/mL | > 190 µM and > 100 µg/mL | > 7.5 µM and > 4 µg/mL | > 7.5 µM and > 4 µg/mL | 37 μM and 20 μg/ml | > 7.5 µM and > 4 µg/mL | > 7.5 µM and > 4 µg/mL | 188 μM and 100 μg/ml | > 190 µM and > 100 µg/mL | > 7.5 µM and > 4 µg/mL | > 7.5 µM and > 4 µg/mL | > 7.5 µM and > 4 µg/mL | > 190 µM and > 100 µg/mL | > 7.5 µM and > 4 µg/mL | > 37 µM and > 20 µg/mL | 37 µM and 20 µg/mL | > 37 µM and > 20 µg/mL | 19.6 μM and 10.4 μg/ml | MIC50 influenza B virus replication (Influenza B virus [14]): 7.1 µg/mL; MCs [15]: > 190 μM and > 100 μg/ml; MIC50 H3N2 influenza A virus replication (Influenza A H3N2 virus [16]): 6.7 µg/mL; MIC50 respiratory syncytial virus [17]: 8.7 µg/mL; MIC50 (Feline herpes virus): > 7.5 µM and > 4 µg/mL; MIC50 influenza A H1N1 virus replication (Influenza A H1N1 virus [18]): 2.7 to 4.0 µg/mL; MIC50 parainfluenza 3 virus (Parainfluenza 3 virus [19]): 4.9 µg/mL; MCC ([13]; listed as umifenovir): 10.4 µg/mL; MCC [20]: 19.0 μM and 10.1 μg/ml; MCC ([20]; listed as umifenovir): 10.1 µg/mL; MIC50 (Feline coronavirus): > 7.5 µM and > 4 µg/mL |
| CC(=O)N[C@H]1[C@H]([C@H](O)[C@H](O)CO)OC(C(=O)O)=C[C@@H]1N=C(N)N [Zanamivir] |  |  |  | 2 µM (≈ 0.665 µg/mL) | 4 µM (≈ 1.33 µg/mL) |  | 1.2 µM (≈ 0.399 µg/mL) | 0.8 µM (≈ 0.266 µg/mL) |  |  |  | 0.3 µM (≈ 0.0997 µg/mL) |  |  |  |  | > 100 µM |  | >100 µM |  |

— PMC7088350 (Chemistry of Heterocyclic Compounds, 2014)
